Reference: patent US20180319865A1, “Identification of Novel Small Molecule Beta2 Integrin Agonists” (Rush University Medical Center, priority 2016, published 2018)
One block for each compound: values may come before it.

Target: T1, mutant integrin CD11bE320A/CD18 (Homo sapiens, UniProt P11215, E336A)
T1 construct: expressed in transfected cells; host or cells: K562 (ATCC)
Assay: HTS cell adhesion assay, K562 E320A cells on immobilized fibrinogen
Assay type: cell-based
Settings: Table 3, adhesion to fibrinogen, five point dose-response
Procedure: K562 cells stably expressing CD11c/CD18 (K562 CD11c/CD18) were generated similarly. […] K562 cells stably transfected with mutant integrin CD11bE320A/CD18 (K562 E320A) were generated according to literature protocols. All cell lines were maintained in Iscove's Modified Dulbecco's Medium (IMDM) supplemented with 10% heat-inactivated fetal bovine serum, 50 IU/mL penicillin and streptomycin and 0.5 mg/mL G418.
Cell adhesion assays with immobilized ligands were performed using the general protocol previously described and as illustrated in FIG. 1 [33]. Assays with all different K562 cell lines (K562, K562 CD11b/CD18, K562 CD11c/CD18 and K562 E320A) were performed in an identical fashion. Briefly, 384-well microplates (Corning 3700) were coated with 15 μg/mL fibrinogen (Fg) ligand in PBS^++ overnight at 4° C. At the same time, anti-CD18 (IB4) mAb was also coated. Subsequently, the coated wells were washed with 1% nonfat milk in TBS at room temperature for 1 hour. Next, the wells were washed 3 times with TBS, and the coated microplates were used in the HTS assays.
K562 CD11b/CD18, K562 CD11bE320A/CD18 and K562 CD11c/CD18 cells were washed with TBS, and cells were transferred to the Fg-coated wells of microplates in the assay buffer (Ca^2+ and Mg^2+ for physiological condition, Mn^2+ as the Positive control). A 1 μL aliquot of the compounds were transferred to each washed well with multichannel pipet from the 384-well plates.
The assay plates were incubated at 37° C. in the presence of small-molecule compounds for 30 min. To dislodge the non-adherent cell, the assay plates were gently inverted and kept in inverted position for 20 min at room temperature.
The cells were fixed with 37% formaldehyde in a small volume and the plates were kept inverted for 1 h. Upon the fixation, the solutions in the well were discarded. Next, the cells were fluorescently labeled with DAPI (0.5 μM final in TBS with 0.1% Triton X-100) and the quantitated with “Opera High Content Screening System” (Perkin Elmer).
Cell-adhesion under positive and negative control conditions was used to define the activity scale; signal corresponding to the number of non-small molecule treated cells adherent in activating buffer condition (in the presence of Mn^2+ ions as agonist, PC) was considered maximum (100% binding) and the signal corresponding to the number of non-small molecule treated cells adherent in basal buffer condition (in the presence of 1 mM each of Ca^2+ and Mg^2+, NC) was considered minimum (0% binding).

T1 sequence (P11215 17-1152 E336A): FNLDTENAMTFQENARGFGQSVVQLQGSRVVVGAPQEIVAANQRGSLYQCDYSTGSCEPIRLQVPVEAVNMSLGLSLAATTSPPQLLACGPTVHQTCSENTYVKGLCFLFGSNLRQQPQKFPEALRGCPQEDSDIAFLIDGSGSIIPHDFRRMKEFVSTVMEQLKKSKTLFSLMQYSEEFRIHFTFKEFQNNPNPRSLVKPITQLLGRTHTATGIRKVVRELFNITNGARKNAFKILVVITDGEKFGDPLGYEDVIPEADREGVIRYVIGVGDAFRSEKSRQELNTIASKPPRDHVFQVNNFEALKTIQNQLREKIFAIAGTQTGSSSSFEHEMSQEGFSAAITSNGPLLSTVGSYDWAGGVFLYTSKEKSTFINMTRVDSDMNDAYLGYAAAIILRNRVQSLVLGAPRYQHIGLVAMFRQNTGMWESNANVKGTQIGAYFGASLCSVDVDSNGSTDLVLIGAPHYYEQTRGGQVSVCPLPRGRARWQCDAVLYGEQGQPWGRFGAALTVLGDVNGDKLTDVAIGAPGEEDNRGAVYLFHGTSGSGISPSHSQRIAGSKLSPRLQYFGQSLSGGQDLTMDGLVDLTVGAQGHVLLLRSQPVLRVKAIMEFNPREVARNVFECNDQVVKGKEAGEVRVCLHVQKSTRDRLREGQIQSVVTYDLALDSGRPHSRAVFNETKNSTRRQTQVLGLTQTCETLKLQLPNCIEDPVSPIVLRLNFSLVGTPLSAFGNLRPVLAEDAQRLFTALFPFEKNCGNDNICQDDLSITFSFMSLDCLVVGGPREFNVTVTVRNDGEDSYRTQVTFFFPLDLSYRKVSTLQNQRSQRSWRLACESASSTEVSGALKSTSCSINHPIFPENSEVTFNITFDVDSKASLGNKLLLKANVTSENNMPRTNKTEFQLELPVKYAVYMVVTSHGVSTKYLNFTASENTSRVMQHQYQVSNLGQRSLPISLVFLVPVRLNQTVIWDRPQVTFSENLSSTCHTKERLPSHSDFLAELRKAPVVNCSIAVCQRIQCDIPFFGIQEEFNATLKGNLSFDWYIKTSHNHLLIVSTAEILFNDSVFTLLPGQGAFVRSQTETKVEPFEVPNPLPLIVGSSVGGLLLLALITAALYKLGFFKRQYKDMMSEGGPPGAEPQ
T1 sequence (P05107 23-769 partner): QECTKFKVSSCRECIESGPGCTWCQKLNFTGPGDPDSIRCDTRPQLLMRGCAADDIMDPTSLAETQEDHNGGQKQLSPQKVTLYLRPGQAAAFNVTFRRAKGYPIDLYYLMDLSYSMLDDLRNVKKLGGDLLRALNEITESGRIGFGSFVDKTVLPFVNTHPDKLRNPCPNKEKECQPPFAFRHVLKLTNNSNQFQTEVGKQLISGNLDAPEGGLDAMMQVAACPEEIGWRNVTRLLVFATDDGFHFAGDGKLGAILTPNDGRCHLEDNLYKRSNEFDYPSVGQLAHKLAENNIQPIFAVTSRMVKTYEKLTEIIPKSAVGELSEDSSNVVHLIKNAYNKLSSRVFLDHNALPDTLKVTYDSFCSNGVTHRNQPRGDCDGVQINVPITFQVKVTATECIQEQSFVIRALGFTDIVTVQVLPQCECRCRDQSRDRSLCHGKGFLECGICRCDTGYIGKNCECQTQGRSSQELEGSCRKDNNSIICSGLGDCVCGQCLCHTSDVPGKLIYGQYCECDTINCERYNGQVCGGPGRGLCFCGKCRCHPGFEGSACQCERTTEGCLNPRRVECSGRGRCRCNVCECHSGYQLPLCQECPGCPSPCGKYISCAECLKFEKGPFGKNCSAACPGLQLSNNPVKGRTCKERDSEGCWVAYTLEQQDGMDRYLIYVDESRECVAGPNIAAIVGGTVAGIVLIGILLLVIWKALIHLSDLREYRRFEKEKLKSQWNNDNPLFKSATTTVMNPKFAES

EC50: 16.5 µM
Structure (SMILES): O=c1cc(CN2CCN(c3cccc(Cl)c3)CC2)c2cc(O)c(-c3ccccc3)cc2o1 [Compound 3287222]

EC50: 9.83 µM
Structure (SMILES): O=C(COC(=O)c1c2c(nc3ccccc13)/C(=C/c1cccc([N+](=O)[O-])c1)CCC2)NC1CCS(=O)(=O)C1 (stereo not shown) [Compound 5950432]

EC50: 10.5 µM
Structure (SMILES): COc1ccc(/C=N/NC(=O)C2c3ccccc3-c3ccccc32)cc1 [Compound 9557044]

EC50: 11.1 µM
Structure (SMILES): N#Cc1ccc(CSc2nnc(NC(=O)C3CC(=O)N(c4ccc5c(c4)OCCO5)C3)s2)cc1 (stereo not shown) [Compound 4831224]

EC50: 8.98 µM
Structure (SMILES): COc1ccc(C2C(C(C)=O)=C(C)N=c3s/c(=C/c4ccc5c(c4)OCO5)c(=O)n32)cc1 (stereo not shown) [Compound 5287341]

EC50: 17.5 µM
Structure (SMILES): COc1cccc2cc(/C(C)=N/Nc3nc(-c4cc(C)ccc4C)cs3)c(=O)oc12 [Compound 9594695]

EC50: 10.7 µM
Structure (SMILES): CC(=O)c1ccc(NC(=O)CSc2ccc(-c3ccc4c(c3)OCO4)nn2)cc1 [Compound 7206282]

EC50: 35.7 µM
Structure (SMILES): Cc1cc(=O)oc2cc(OCC(=O)N/N=C/c3ccccc3[N+](=O)[O-])ccc12 [Compound 9619223]

EC50: 46.2 µM
Structure (SMILES): CN(C)c1ccc(NC(=O)Cn2ncn3c(cc4ccccc43)c2=O)cc1 [Compound 3244843]

EC50: 7.33 µM
Structure (SMILES): COc1cccc(OCc2cc(/C=N/NC(=O)c3nc(Cl)c(Cl)c(N)c3Cl)ccc2OC)c1 [Compound 6881723]

EC50: 8.85 µM
Structure (SMILES): O=C1c2cccc(OCC(=O)N3N=C(c4cccs4)CC3c3ccc(F)cc3)c2CCN1Cc1cccnc1 (stereo not shown) [Compound 4168394]

EC50: 8.84 µM
Structure (SMILES): O=C(NCCN1C(=O)S/C(=C\c2ccccc2)C1=O)c1cc(S(=O)(=O)N2CCOCC2)c(Cl)cc1Cl [Compound 5774232]

EC50: 11.7 µM
Structure (SMILES): O=C(N/N=C\c1ccc(-c2ccc([N+](=O)[O-])cc2)o1)c1ccc2c(c1)OCO2 [Compound 5497396]

EC50: 22.3 µM
Structure (SMILES): O=C(Nc1ccc(Cl)cc1)[C@@H]1[C@@H]2C(=O)N(c3ccc(Cl)cc3Cl)C(=O)[C@@H]2[C@H]2C=CC=NN21 [Compound 9551824]

EC50: 8.13 µM
Structure (SMILES): O=C(Cc1cccs1)Nc1nnc(SCc2cccc3ccccc23)s1 [Compound 7191378]

EC50: 8.23 µM
Structure (SMILES): Cc1cc(C)cc(NC(=O)Cn2c(=O)oc3cc(S(=O)(=O)N4CCC(C)CC4)ccc32)c1 [Compound 9551541]

EC50 E320A: Very Low
Structure (SMILES): COc1cc(/C=C2/SC(=S)N(c3ccccc3)C2=O)ccc1Oc1nc(N2CCOCC2)nc(N2CCOCC2)n1 [Compound 5343920]

EC50: 9.85 µM
Structure (SMILES): COc1ccc(C(=O)CSc2nnc(NC(=O)C3CC(=O)N(c4ccccc4)C3)s2)cc1 (stereo not shown) [Compound 12006105]

EC50: 999 µM
Structure (SMILES): COc1ccc(C2=Nc3nc(-c4ccccc4)cn3C(c3ccc(OC)cc3)C2)cc1 (stereo not shown) [Compound 4325421]

EC50: 13 µM
Structure (SMILES): COc1ccc(N(CC(=O)N/N=C/c2ccc(-c3ccc([N+](=O)[O-])cc3)o2)S(=O)(=O)c2ccc(C)cc2)cc1 [Compound 5334631]

EC50: 9.05 µM
Structure (SMILES): COc1ccccc1CNC(=O)c1ccc2nc3[nH]c4ccccc4c3nc2c1 [Compound 6079611]

More lines, now with the values behind:

Structure (SMILES): O=C(Nc1nc(-c2ccncc2)cs1)c1ccco1 [Compound 2081288]
EC50: 12.7 µM

Structure (SMILES): CCc1nc(SCC(=O)Nc2nnc(CC)s2)c2c(C)c(C)sc2n1 [Compound 3197508]
EC50: 8.48 µM

Structure (SMILES): Cc1ccc2nc3sc(C(=O)Nc4ccc(N5CCOCC5)cc4)c(N)c3cc2c1 [Compound 1442651]
EC50: 10.8 µM

Structure (SMILES): COC(=O)/C(=C1/Oc2cc3c(cc2S1)OCO3)C(F)(F)F [Compound 3237460]
EC50: 135 µM

Structure (SMILES): CCC1CCCCN1S(=O)(=O)c1ccc(S(=O)(=O)N2CCN(S(=O)(=O)CC)CC2)cc1 (stereo not shown) [Compound 651007]
EC50: 8.18 µM

Structure (SMILES): CCCCN1C(=O)/C(=C/c2ccc(N3CCCCCC3)cc2)C(=O)NC1=S [Compound 2067755]
EC50: 78.3 µM

Structure (SMILES): Cc1cc(C=C2C(=O)N(C)C(=S)N(C)C2=O)c(C)n1C1CCCCC1 [Compound 1347165]
EC50: 171 µM

Structure (SMILES): Cc1ccnc(N/C=C(\C#N)c2nc(-c3cccc(Br)c3)cs2)c1 [Compound 1352154]
EC50: 8.01 µM

Structure (SMILES): CC(=O)c1ccc(N2C(=O)C3C(C2=O)C(C(=O)c2ccc(Cl)cc2)N2CCCC32)cc1 (stereo not shown) [Compound 665589]
EC50: 14.5 µM

Structure (SMILES): O=C(CSc1nc2ccccc2c2nc3ccccc3n12)NCc1ccco1 [Compound 3238872]
EC50: 19.1 µM

Structure (SMILES): CC1=NN(c2nc(-c3ccc(C)cc3)cs2)C(=O)C1N=Nc1ccc2ccccc2c1 (stereo not shown) [Compound 3101589]
EC50: 13.4 µM

Structure (SMILES): Cc1ccc2sc(-c3ccc(NC(=O)CCN4C(=O)c5ccccc5C4=O)cc3)nc2c1 [Compound 1193278]
EC50: 5.17 µM

Structure (SMILES): C=CCn1c(SCC(=O)Nc2sccc2C#N)nc2sc(C)c(C)c2c1=O [Compound 1564171]
EC50: 14.8 µM

Structure (SMILES): COc1ccc(C(=O)Nc2ccc(N3CCN(c4ccc(OC)cc4)CC3)c(C#N)c2)cc1 [Compound 3241486]
EC50: 9.08 µM

Structure (SMILES): COc1cc(NC(=O)c2noc3c2CCC3)c(OC)cc1Cl [Compound 3238190]
EC50: 10.5 µM

Structure (SMILES): Cc1ccc(CN2C(=O)C3CCCN3c3ccc(S(=O)(=O)N4CCOCC4)cc32)cc1 (stereo not shown) [Compound 2766156]
EC50: 10.7 µM

Structure (SMILES): O=C1NC(=O)N(c2ccc(F)cc2)C(=O)/C1=C/c1ccc2c(c1)CCCN2Cc1ccccc1 [Compound 1997460]
EC50: 6.23 µM

Structure (SMILES): CCOc1ccc(C(=O)Nc2ccc(N3CCCC3)cc2)cc1 [Compound 650825]
EC50: 9.86 µM

Structure (SMILES): CCS(=O)(=O)N1CCC(C(=O)NCCCN2CCCCCC2)CC1 [Compound 3244583]
EC50: 9.7 µM

Structure (SMILES): CCN(CC)C(=O)c1sc(NC(=O)c2cc(-c3ccc(C)s3)nc3ccccc23)c(C(=O)OC)c1C [Compound 1219756]
EC50: 9.94 µM

Structure (SMILES): O=C(Nc1nc2c(s1)CCCC2)c1cc(-c2ccncc2)nc2ccccc12 [Compound 2462581]
EC50: 12.6 µM

Structure (SMILES): CN(C)c1ccc(NC(=O)CN2C(=O)CC(c3ccccc3)=Nc3ccccc32)cc1 [Compound 656131]
EC50: 9.97 µM

Structure (SMILES): COc1ccc(-n2c(SCC(=O)Nc3nccs3)nc3sc4c(c3c2=O)CCN(C)C4)cc1 [Compound 664564]
EC50: 20.4 µM

Structure (SMILES): NC(=O)c1cc(-c2ccccc2)sc1NC(=O)Cc1ccc(S(=O)(=O)N2CCOCC2)s1 [Compound 2121076]
EC50: 19.4 µM

Structure (SMILES): CSCCOC(=O)c1[nH]c2c(c1C)C(=O)CC(c1ccco1)C2 (stereo not shown) [Compound 3162305]
EC50: 10.4 µM

Structure (SMILES): Cc1nn2c(-c3cccc(NC(=O)CSc4nc5ccccc5o4)c3)nnc2c2ccccc12 [Compound 1290769]
EC50: 7.82 µM

Structure (SMILES): CC(C)CCn1c(SCC(=O)N2CC(=O)Nc3ccccc32)nc2scc(-c3cccs3)c2c1=O [Compound 2566842]
EC50: 7.57 µM

Structure (SMILES): COc1ccc(NC(=O)CCC(=O)OCC(=O)c2ccc(Oc3ccc([N+](=O)[O-])cc3)cc2)cc1 [Compound 2912337]
EC50: 12.4 µM

Structure (SMILES): O=C(Nc1ccc(Br)cc1Cl)c1cnccn1 [Compound 1245695]
EC50: 8.47 µM

Structure (SMILES): CSc1nc(NCCOCCO)c2sc3nc(-c4ccco4)c4c(c3c2n1)CCC4 [Compound 665043]
EC50: 9.23 µM

Structure (SMILES): Cc1csc(NC(=O)CSc2nc3sc(C)c(C)c3c(=O)[nH]2)n1 [Compound 650604]
EC50: 9.43 µM

Structure (SMILES): O=C(CC1Nc2ccccc2NC1=O)Nc1ccccc1 (stereo not shown) [Compound 2829724]
EC50: 18.3 µM

Structure (SMILES): Cc1oc(-c2ccc(Cl)cc2)cc1-c1nn2c(-c3ccoc3C)nnc2s1 [Compound 2145570]
EC50: 8.25 µM

Structure (SMILES): CCC(=O)Nc1ccc(C(=O)CSc2nnc(-c3ccccc3F)n2C2CC2)cc1 [Compound 2448744]
EC50: 21.8 µM

Structure (SMILES): COc1ccc(-c2cc(C(=O)OCC(=O)Nc3ccc4c(c3)OCO4)c3ccccc3n2)cc1 [Compound 2338283]
EC50 E320A: Infinite

Structure (SMILES): NS(=O)(=O)c1ccc(NC(=S)NC(=O)c2ccc(-c3ccccc3)cc2)cc1 [Compound 1011163]
EC50: 12.9 µM

Structure (SMILES): Cc1sc2nc(CSc3nc4ccccc4c(=O)n3CCCN3CCOCC3)[nH]c(=O)c2c1C [Compound 2566737]
EC50: 8.42 µM

Structure (SMILES): COc1cc2c(cc1NC(=O)c1cc(-c3ccncc3)nc3ccccc13)oc1ccccc12 [Compound 2098333]
EC50: 0.441 µM

Structure (SMILES): CCCSc1nnc(NC(=O)c2sc3nc(-c4cccs4)ccc3c2N)s1 [Compound 1773030]
EC50: 7.74 µM

Structure (SMILES): Cc1ccc(/C=C/C(=O)Nc2nnc(SCc3ccc(C#N)cc3)s2)o1 [Compound 2126150]
EC50 E320A: Infinite

Structure (SMILES): Cc1ccc(-c2cc(C(=O)Nc3ccc(S(=O)(=O)Nc4nccs4)cc3)c3ccccc3n2)c(C)c1 [Compound 1358622]
EC50: 13.7 µM

Structure (SMILES): COc1ccc2c(c1)cc(C)c1nnc(SCC(=O)N(C)c3nc(-c4ccccc4)cs3)n12 [Compound 1135734]
EC50: 9.42 µM

Structure (SMILES): Cc1ccc(-c2cc(C(=O)N/N=C/C=C/c3ccco3)c3ccccc3n2)cc1C [Compound 1764811]
EC50: 19.3 µM
